Here are results for 13 molecules from ChEMBL document CHEMBL1138324, “Synthesis and nicotinic acetylcholine receptor binding properties of bridged and fused ring analogues of epibatidine” (J Med Chem, 2007).

Test [1] is filed under the species Mus musculus. As to the kind of experiment: Antinociceptive effect in mouse by hot plate test. The format is functional.
Test [2] is filed under the species Mus musculus. As to the kind of experiment: Effect on hypothermia in mouse assessed as change in body temperature. It is filed as functional.
The species named for test [3] is Mus musculus. As to the kind of experiment: Antinociceptive effect in mouse by tail flick test. The format is functional.
In test [4] the test system is Mus musculus. Nature of the test: Inhibition of nicotine-induced hypothermia in mouse assessed as change in body temperature at 5000 ug/kg, sc. The format is functional. Further details: scale not given: the % may be the effect or the level left.
Test [5] deals with Mus musculus. Nature of the test: Inhibition of nicotine-induced antinociceptive effect in sc dosed mouse by hot plate test. It is filed as functional.
For test [6], the system named is Mus musculus. As to the kind of experiment: Inhibition of nicotine-induced antinociceptive effect in sc dosed mouse by tail flick test. The format is functional.
The subject of test [7] is Mus musculus. Nature of the test: Effect on hypothermia in mouse assessed as change in body temperature at 10 mg/kg. It is filed as functional.
In test [8] the test system is Mus musculus. As to the kind of experiment: Antinociceptive effect in mouse at 10 mg/kg by tail flick test. It is filed as functional.
For test [9], the system named is Mus musculus. As to the kind of experiment: Antinociceptive effect in mouse at 10 mg/kg by hot plate test. It is filed as functional.
Test [10] deals with Mus musculus. As to the kind of experiment: Inhibition of nicotine-induced antinociceptive effect in mouse at 15000 ug/kg, sc by hot plate test. It is filed as functional.
The target of test [11] is T1, Neuronal acetylcholine receptor; alpha4/beta2 (Homo sapiens, UniProt P17787+P43681). Nature of the test: Displacement of [3H]epibatidine from alpha-4-beta-2 nAChR. It is filed as protein-complex assay.
In test [12] the test system is Mus musculus. As to the kind of experiment: Inhibition of nicotine-induced hypothermia in mouse assessed as change in body temperature at 15000 ug/kg, sc. It is filed as functional. Further details: scale not given: the % may be the effect or the level left.
In test [13] the target is Neuronal acetylcholine receptor subunit alpha-7 (Homo sapiens) (UniProt P36544). As to the kind of experiment: Displacement of [125I]iodoMLA from alpha-7 nAChR at 50 nM.
The target in test [14] is T1, Neuronal acetylcholine receptor; alpha4/beta2. As to the kind of experiment: Displacement of [3H]epibatidine from alpha-4-beta-2 nAChR at 31.6 uM. It is filed as protein-complex assay.
Test [15] relates to Mus musculus. As to the kind of experiment: Inhibition of nicotine-induced hypothermia in mouse assessed as change in body temperature at 0.5 ug/kg, sc. It is filed as functional. More on the design: scale not given: the % may be the effect or the level left.
Test [16] relates to Mus musculus. Nature of the test: Inhibition of nicotine-induced antinociceptive effect in mouse at 0.5 ug/kg, sc by hot plate test. It is filed as functional.

Chain of Neuronal acetylcholine receptor subunit alpha-7 (Homo sapiens) (P36544 whole entry): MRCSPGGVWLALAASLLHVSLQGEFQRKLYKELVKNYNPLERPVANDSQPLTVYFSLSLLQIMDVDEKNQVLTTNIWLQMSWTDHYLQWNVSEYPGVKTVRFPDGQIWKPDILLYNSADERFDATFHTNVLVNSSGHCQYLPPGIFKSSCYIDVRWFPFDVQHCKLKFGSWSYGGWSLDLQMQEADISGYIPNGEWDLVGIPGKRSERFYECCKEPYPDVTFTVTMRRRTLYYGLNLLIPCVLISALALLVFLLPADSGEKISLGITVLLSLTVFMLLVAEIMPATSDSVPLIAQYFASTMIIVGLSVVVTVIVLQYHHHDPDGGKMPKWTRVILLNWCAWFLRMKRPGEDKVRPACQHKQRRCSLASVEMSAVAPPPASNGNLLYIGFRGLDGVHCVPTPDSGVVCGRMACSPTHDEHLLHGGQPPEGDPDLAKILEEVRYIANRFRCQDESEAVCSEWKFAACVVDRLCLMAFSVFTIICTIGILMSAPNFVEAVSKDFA
T1 sequence (P17787 whole entry): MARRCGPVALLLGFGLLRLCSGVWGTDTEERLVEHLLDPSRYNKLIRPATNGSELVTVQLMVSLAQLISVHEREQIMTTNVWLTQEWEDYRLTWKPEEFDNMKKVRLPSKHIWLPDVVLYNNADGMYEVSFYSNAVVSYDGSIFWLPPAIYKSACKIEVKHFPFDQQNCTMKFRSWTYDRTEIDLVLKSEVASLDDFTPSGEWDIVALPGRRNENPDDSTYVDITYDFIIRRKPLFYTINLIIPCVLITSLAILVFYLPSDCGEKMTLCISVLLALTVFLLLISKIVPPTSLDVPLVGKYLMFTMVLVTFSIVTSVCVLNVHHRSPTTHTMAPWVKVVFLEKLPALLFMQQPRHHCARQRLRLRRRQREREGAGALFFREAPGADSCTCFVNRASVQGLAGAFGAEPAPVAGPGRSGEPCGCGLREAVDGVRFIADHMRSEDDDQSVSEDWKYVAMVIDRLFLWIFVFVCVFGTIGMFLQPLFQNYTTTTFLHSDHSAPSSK
T1 sequence (P43681 whole entry): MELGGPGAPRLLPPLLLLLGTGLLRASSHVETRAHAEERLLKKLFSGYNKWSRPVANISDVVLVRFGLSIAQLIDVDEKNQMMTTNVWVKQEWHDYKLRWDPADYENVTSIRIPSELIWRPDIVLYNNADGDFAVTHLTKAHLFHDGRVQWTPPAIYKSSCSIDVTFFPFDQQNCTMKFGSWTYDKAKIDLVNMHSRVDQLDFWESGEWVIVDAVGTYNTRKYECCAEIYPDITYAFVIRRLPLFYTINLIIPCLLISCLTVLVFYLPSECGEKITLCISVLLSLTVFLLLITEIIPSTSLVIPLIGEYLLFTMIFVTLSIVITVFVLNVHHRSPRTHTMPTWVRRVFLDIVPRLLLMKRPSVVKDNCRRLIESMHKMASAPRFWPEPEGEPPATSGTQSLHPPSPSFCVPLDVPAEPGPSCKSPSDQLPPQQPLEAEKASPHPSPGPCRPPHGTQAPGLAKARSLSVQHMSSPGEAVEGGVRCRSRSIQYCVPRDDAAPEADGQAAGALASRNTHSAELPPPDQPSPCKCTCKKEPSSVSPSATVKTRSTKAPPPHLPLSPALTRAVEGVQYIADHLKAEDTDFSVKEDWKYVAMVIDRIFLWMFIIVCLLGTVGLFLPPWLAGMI

With `Clc1ccc([C@@H]2C[C@H]3CC[C@@H]2N3)cn1` [(+)-EPIBATIDINE], the ED50 stood at 4 µg/kg in the test filed under Mus musculus [1], 4 µg/kg in the test listed under Mus musculus [2] and 6 µg/kg in the test listed under Mus musculus [3].
Take `Cc1cc(Cl)ncc1C1CC2CCC1N2` (stereo not drawn): the Activity with Mus musculus [4] was 0%; in the test with Mus musculus [7], 0%; with Mus musculus [8], 4%; in the test on Mus musculus [9] it was 20%. The AD50 with Mus musculus [5] amounted to 1200 µg/kg; in the test on Mus musculus [6], 400 µg/kg.
In the test with Mus musculus [10], `Cc1nc(Cl)ccc1C1CC2CCC1N2` (stereo not drawn) returned an inhibition in vivo at 15 mg/kg of 10%. The molecule further yielded an AD50 in the test with Mus musculus [6] of 9000 µg/kg. For the same molecule, the Activity with Mus musculus [7] was 0%; in the test with Mus musculus [8] it was 1%; with Mus musculus [9], 14%; in the test with Mus musculus [12], 0%. Moreover, the affinity in test [11], expressed as Ki, was 256 nM.
On to `c1cc2c(cn1)C1CCC2N1` (stereo not drawn), for which the Activity in test [13] was 0%; in test [14], under 15%.
Regarding `Clc1ccc2c(n1)CN1C3CCC1C2C3` (stereo not drawn), the Activity in the test on Mus musculus [7] is listed as 0%; with Mus musculus [8] it was 3%; with Mus musculus [9], 17%.
In turn, `Clc1ccc(C2CC3NC2c2ccccc23)cn1` (stereo not drawn) returned an Activity in test [13] of 0%. In [11], this molecule registered a Ki of 65.2 nM.
Regarding `Nc1ccc2c(n1)CN1C3CCC1C2C3` (stereo not drawn), the Activity is listed as 0% in the test on Mus musculus [7], 4% in the test on Mus musculus [8] and 10% with Mus musculus [9]. The molecule further had a Ki in [11] of 7370 nM.
As for `C1=CC2NC1c1ccncc12` (stereo not drawn), the Activity in test [13] was 0%; in [14] it was under 15%.
Consider `CN1C2CCC1C(c1ccc(Cl)nc1)C2` (stereo not drawn), for which the Activity in the test on Mus musculus [15] was 0%. Also, the ED50 came to 3 µg/kg in the test filed under Mus musculus [1], 3 µg/kg in the test filed under Mus musculus [2] and 4.4 µg/kg in the test listed under Mus musculus [3]. The molecule also had an AD50 in the test on Mus musculus [6] of 0.048 µg/kg. For the same molecule, the inhibition in vivo at 0.0005 mg/kg with Mus musculus [16] stood at 23%. Besides, the inhibition constant Ki in [11] was found to be 0.038 nM.
For the molecule `Clc1cc2c(cn1)C1CC3CCC1N3C2` (stereo not drawn), the Activity in the test on Mus musculus [7] came to 0%; with Mus musculus [8], 2%; with Mus musculus [9] it was 18%. The same molecule registered a Ki in test [11] of 3330 nM.
As for `Fc1ncc(C2CC3NC2c2ccccc23)cc1-c1ccccc1` (stereo not drawn), in test [13], the Activity was 0%. In addition, the Ki in test [11] was found to be 128 nM.
In the case of `c1cnc2c(c1)C1CCC2N1` (stereo not drawn), the Activity in test [13] was 0%; in [14] it was under 15%.
Regarding `Nc1cc2c(cn1)C1CC3CCC1N3C2` (stereo not drawn), the Activity in the test on Mus musculus [7] is 0%; in the test on Mus musculus [8], 2%; in the test on Mus musculus [9], 16%. In test [11], this molecule displayed a Ki of 12400 nM.
